Holding throughout (assay type): functional
Common to all, as to conditions: route intraperitoneal

The subject of test [1] is Rattus norvegicus. Description: Antiinflammatory activity against carrageenan-induced paw edema in Wister albino rat assessed as inhibition of edema at 50 mg/kg, ip administered 1 hr prior to carrageenan challenge measured after 4 hrs relative to control. In general terms: Carrageenan injected into the paw causes an acute inflammation.
For test [2], the system named is Rattus norvegicus. Description: Antiinflammatory activity against carrageenan-induced paw edema in Wister albino rat assessed as inhibition of edema at 50 mg/kg, ip administered 1 hr prior to carrageenan challenge measured after 4 hrs relative to indomethacin.
The test system of test [3] is Rattus norvegicus. The experiment in a line: Antiinflammatory activity against carrageenan-induced paw edema in Wister albino rat assessed as inhibition of edema at 50 mg/kg, ip administered 1 hr prior to carrageenan challenge measured after 2 hrs relative to control.
The test system of test [4] is Rattus norvegicus. Description: Antiinflammatory activity against carrageenan-induced paw edema in Wister albino rat assessed as inhibition of edema at 50 mg/kg, ip administered 1 hr prior to carrageenan challenge measured after 1 hr relative to control.
The subject of test [5] is Rattus norvegicus. Description: Antiinflammatory activity against carrageenan-induced paw edema in Wister albino rat assessed as inhibition of edema at 50 mg/kg, ip administered 1 hr prior to carrageenan challenge measured after 3 hrs relative to control.
The test system of test [6] is Rattus norvegicus. Description: Antiinflammatory activity against carrageenan-induced paw edema in Wister albino rat assessed as inhibition of edema at 10 mg/kg, ip administered 1 hr prior to carrageenan challenge measured after 1 hr relative to control.
Test [7] has as its system Rattus norvegicus. The experiment in a line: Antiinflammatory activity against carrageenan-induced paw edema in Wister albino rat assessed as inhibition of edema at 10 mg/kg, ip administered 1 hr prior to carrageenan challenge measured after 3 hrs relative to control.
In test [8] the test system is Rattus norvegicus. The experiment in a line: Antiinflammatory activity against carrageenan-induced paw edema in Wister albino rat assessed as inhibition of edema at 10 mg/kg, ip administered 1 hr prior to carrageenan challenge measured after 4 hrs relative to control.
The subject of test [9] is Rattus norvegicus. Description: Antiinflammatory activity against carrageenan-induced paw edema in Wister albino rat assessed as inhibition of edema at 10 mg/kg, ip administered 1 hr prior to carrageenan challenge measured after 2 hrs relative to control.

Data on eight compounds can be found in ChEMBL document CHEMBL1152855, “Regioselective synthesis of dispiro[1H-indene-2,3'-pyrrolidine-2',3''-[3H]indole]-1,2''(1''H)-diones of potential anti-tumor properties” (2009).

For orientation: inhibition in vivo means how much of the control response was suppressed.

Each structure is given as a SMILES string.

As to `[3H]N1C(=O)[C@@]2(c3ccccc31)N(C)C[C@@H](c1ccc(C)cc1)[C@@]21Cc2ccccc2C1=O`, the inhibition in vivo at 50 mg/kg with Rattus norvegicus [1] was 17.1%; in the test with Rattus norvegicus [3], 23.8%; in the test with Rattus norvegicus [4], 56.4%; in the test on Rattus norvegicus [5], 27.4%. Besides, in the test on Rattus norvegicus [2], the activity relative to indomethacin was 35%.
For `[3H]C([3H])([3H])N1C(=O)[C@@]2(c3ccccc31)N(C)C[C@@H](c1ccc(C)cc1)[C@@]21Cc2ccccc2C1=O` the same measures were 13.9%, 8%, 46.9%, 6.4% and 29%.
For `[3H]N1C(=O)[C@@]2(c3ccccc31)N(C)C[C@@H](c1ccco1)[C@@]21Cc2ccccc2C1=O` the same measures were 33.5%, 53.6%, 48.8%, 38.8% and 69%.
As to `[3H]C([3H])([3H])N1C(=O)[C@@]2(c3ccccc31)N(C)C[C@@H](c1ccco1)[C@@]21Cc2ccccc2C1=O`, the inhibition in vivo at 50 mg/kg in the test with Rattus norvegicus [1] worked out at 8.2%; with Rattus norvegicus [3], 33.1%; in the test on Rattus norvegicus [4] it was 50.1%; in the test on Rattus norvegicus [5], 17.5%. Also, the activity relative to indomethacin in the test with Rattus norvegicus [2] was determined as 17%.
With `[3H]N1C(=O)[C@@]2(c3ccccc31)N(C)C[C@@H](c1ccccc1)[C@@]21Cc2ccccc2C1=O`, the inhibition in vivo at 50 mg/kg in the test with Rattus norvegicus [1] was found to be 39.3%; in the test with Rattus norvegicus [3] it was 40%; with Rattus norvegicus [4], 56%; with Rattus norvegicus [5] it was 42.5%. Moreover, in the test on Rattus norvegicus [2], the activity relative to indomethacin stood at 81%.
For `[3H]N1C(=O)[C@@]2(c3ccccc31)N(C)C[C@@H](c1ccc(F)cc1)[C@@]21Cc2ccccc2C1=O` the same measures were 21.8%, 21.2%, 40.6%, 21.1% and 45%.
With `[3H]C([3H])([3H])N1C(=O)[C@@]2(c3ccccc31)N(C)C[C@@H](c1ccc(F)cc1)[C@@]21Cc2ccccc2C1=O`, the inhibition in vivo at 50 mg/kg was found to be 25.5% in the test on Rattus norvegicus [1], 24.6% with Rattus norvegicus [3], 52.9% in the test with Rattus norvegicus [4] and 26.9% with Rattus norvegicus [5]. Moreover, the activity relative to indomethacin with Rattus norvegicus [2] was 53%.
`COc1ccc2c(c1)c(CC(=O)O)c(C)n2C(=O)c1ccc(Cl)cc1` [INDOMETHACIN]: the inhibition in vivo at 10 mg/kg with Rattus norvegicus [6] is 51%; in the test with Rattus norvegicus [7], 48.3%; with Rattus norvegicus [8], 48.5%; with Rattus norvegicus [9], 45.6%.
